Measurements as given in patent US6703397B2, “Pyrimidinyl methyl indole derivatives with antibacterial activity” (Basilea Pharmaceutica AG, priority 2000, dated 2004).
In brackets after ≈: the same amount, converted by molar mass.

What was measured:
[1] = target: purified DHFR of strain Spn1/1 (Streptococcus pneumoniae serotype 4, UniProt Q54801, E20D/I100L/L135F/P70S/Q81H); test: biochemical
Source text: Col. 3: DHFR Spn1/1; μM)—the IC50-values in μM against the purified DHFR of the above strain Spn1/1; of Streptococcus pneumoniae.

[2] = tested on: Streptococcus pneumoniae 1/1; test: MIC against Streptococcus pneumoniae 1/1 (trimethoprim- and penicillin-resistant clinical isolate, serotype 6); type: cell-based; details: Streptococcus pneumoniae 1/1, trimethoprim- and penicillin-resistant, serotype 6; read-out: Spn 1/1 MIC
Method: The following Tables 1 and 2 contain inhibitory concentrations determined in the above test for representative members of the class of compound defined by formula I. The following microorganisms were tested: […]
Col. 2: MIC Spn1/1; μg/ml (Streptococcus pneumoniae 1/1, Trimethoprim- and Penicillin-resistant, Serotype 6; clinical isolate, stored at −80° C.). Lit.: H. Locher et al., Can. J. Infect. Dis. 6: Suppl. C, p 469C.

[3] = tested on: Streptococcus pneumoniae ATCC 49619; test: MIC against Streptococcus pneumoniae ATCC 49619 (trimethoprim- and penicillin-susceptible reference strain); type: cell-based; details: ATCC49619; Streptococcus pneumoniae ATCC 49619, trimethoprim- and penicillin-susceptible; read-out: Spn 49619 MIC
Method: The following Tables 1 and 2 contain inhibitory concentrations determined in the above test for representative members of the class of compound defined by formula I. The following microorganisms were tested: Col. 1: […]

Sequence of purified DHFR of strain Spn1/1 (Q54801 whole entry E20D/P70S/Q81H/I100L/L135F): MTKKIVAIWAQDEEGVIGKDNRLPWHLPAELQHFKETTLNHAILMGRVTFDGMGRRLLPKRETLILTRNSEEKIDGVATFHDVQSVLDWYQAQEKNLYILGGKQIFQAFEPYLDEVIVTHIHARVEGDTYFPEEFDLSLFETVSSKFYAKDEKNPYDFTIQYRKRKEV

CCn1cc(CN2CCSCC2)c2c(OS(=O)(=O)C(C)C)cc(Cc3cnc(N)nc3N)cc21 [Example 10c, Propane-2-sulfonic acid 6-(2,4-diamino-pyrimidin-5-ylmethyl)-1-ethyl-3-thiomorpholin-4-ylmethyl-1H-indol-4-yl ester] was tested, and the IC50 [1] was 160 nM, the MIC [2] was 4 µg/mL (≈ 7.93 µM) and the MIC [3] was 1 µg/mL (≈ 1.98 µM).

For CC(C)S(=O)(=O)Oc1cc(Cc2cnc(N)nc2N)cc2c1ccn2C [Example 5c, Propane-2-sulfonic acid 6-(2,4-diamino-pyrimidin-5-ylmethyl)-1-methyl-1H-indol-4-yl ester], the IC50 [1] was 84 nM, the MIC [2] was 4 µg/mL (≈ 10.7 µM) and the MIC [3] was 0.25 µg/mL (≈ 0.666 µM).

CCn1ccc2c(OS(=O)(=O)CC(C)C)cc(Cc3cnc(N)nc3N)cc21 [Example 8c, 2-Methyl-propane-1-sulfonic acid 6-(2,4-diamino-pyrimidin-5-ylmethyl)-1-ethyl-1H-indol-4-yl ester] was tested, and the IC50 [1] was 1.5 nM, the MIC [2] was 2 µg/mL (≈ 4.96 µM) and the MIC [3] was ≤ 0.015 µg/mL.

In the case of CCn1cc(Br)c2c(OCC3CC3)cc(Cc3cnc(N)nc3N)cc21 [Example 13, 5-(3-Bromo-4-cyclopropylmethoxy-1-ethyl-1H-indol-6-ylmethyl)-pyrimidine-2,4-diamine], the IC50 [1] is reported as 42 nM, the MIC [2] is reported as 4 µg/mL (≈ 9.61 µM) and the MIC [3] is reported as 0.125 µg/mL (≈ 0.3 µM).

C#CCOc1cc(Cc2cnc(N)nc2N)cc2c1ccn2CC [Example 7d, 5-(1-Ethyl-4-prop-2-ynyloxy-1H-indol-6-ylmethyl)-pyrimidine-2,4-diamine] was tested, and the IC50 [1] was 71 nM, the MIC [2] was 8 µg/mL (≈ 24.9 µM) and the MIC [3] was 0.125 µg/mL (≈ 0.389 µM).

With CCOc1cc(Cc2cnc(N)nc2N)cc2c1ccn2S(=O)(=O)C(C)C [Example 2d, 5-[4-Ethoxy-1-(propane-2-sulfonyl)-1H-indol-6-ylmethyl]-pyrimidine-2,4-diamine] the IC50 [1] was 330 nM, the MIC [2] was > 8 µg/mL and the MIC [3] was 0.5 µg/mL (≈ 1.28 µM).

CCn1cc(CN2CCOCC2)c2c(OS(=O)(=O)C(C)C)cc(Cc3cnc(N)nc3N)cc21 [Example 10b, Propane-2-sulfonic acid 6-(2,4-diamino-pyrimidin-5-ylmethyl)-1-ethyl-3-morpholino-4-ylmethyl-1H-indol-4-ester] was tested, and the IC50 [1] was 110 nM, the MIC [2] was 8 µg/mL (≈ 16.4 µM) and the MIC [3] was 0.5 µg/mL (≈ 1.02 µM).

Compound CCn1ccc2c(OCC3(C)CC3)cc(Cc3cnc(N)nc3N)cc21 [Example 7h, 5-[1-Ethyl-4-(1-methyl-cyclopropylmethoxy)-1H-indol-6-ylmethyl]-pyrimidine-2,4-diamine] has an IC50 [1] of 15 nM, an MIC [2] of 4 µg/mL (≈ 11.4 µM) and an MIC [3] of 1 µg/mL (≈ 2.85 µM).

For CCn1ccc2c(OCC(C)C)cc(Cc3cnc(N)nc3N)cc21 [Example 7g, 5-(1-Ethyl-4-isobutoxy-1H-indol-6-ylmethyl)-pyrimidine-2,4-diamine], the IC50 [1] was 29 nM, the MIC [2] was 2 µg/mL (≈ 5.89 µM) and the MIC [3] was 0.5 µg/mL (≈ 1.47 µM).

With CCOc1cc(Cc2cnc(N)nc2N)cc2c1ccn2Cc1ccccc1 [Example 2c, 5-(1-Benzyl-4-ethoxy-1H-indol-6-ylmethyl)-pyrimidine-2,4-diamine] the IC50 [1] was 460 nM, the MIC [2] was > 8 µg/mL and the MIC [3] was 2 µg/mL (≈ 5.36 µM).
